In ChEMBL document CHEMBL1201862, “PubChem BioAssay data set” (2004):
The source made the active and inactive calls.

How the values were obtained:
[1] = viability inhibitors of stage V gametocytes – luminescence, dose response (AID 1117278); format: functional, cell-based;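 also: gametocytes exposed to compound for 24 hours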
[2] = viability loss in human Jurkat cells – cell-based, luminescence, cytotoxicity control for P. falciparum gametocyte viability project, dose response (AID 1117277); format: functional;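 also: potency reflects loss of cellular ATP meaning fewer viable cells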
[3] = target: T1, 1-phosphatidylinositol 4,5-bisphosphate phosphodiesterase gamma-1 (Homo sapiens, UniProt P19174); test: Counterscreen for inhibitors of phospholipase C isozymes (PLC-B3): Fluorescence-based biochemical high throughput dose response assay to identify inhibitors of phospholipase C isozymes (PLC-gamma1).
T1 sequence (P19174 whole entry): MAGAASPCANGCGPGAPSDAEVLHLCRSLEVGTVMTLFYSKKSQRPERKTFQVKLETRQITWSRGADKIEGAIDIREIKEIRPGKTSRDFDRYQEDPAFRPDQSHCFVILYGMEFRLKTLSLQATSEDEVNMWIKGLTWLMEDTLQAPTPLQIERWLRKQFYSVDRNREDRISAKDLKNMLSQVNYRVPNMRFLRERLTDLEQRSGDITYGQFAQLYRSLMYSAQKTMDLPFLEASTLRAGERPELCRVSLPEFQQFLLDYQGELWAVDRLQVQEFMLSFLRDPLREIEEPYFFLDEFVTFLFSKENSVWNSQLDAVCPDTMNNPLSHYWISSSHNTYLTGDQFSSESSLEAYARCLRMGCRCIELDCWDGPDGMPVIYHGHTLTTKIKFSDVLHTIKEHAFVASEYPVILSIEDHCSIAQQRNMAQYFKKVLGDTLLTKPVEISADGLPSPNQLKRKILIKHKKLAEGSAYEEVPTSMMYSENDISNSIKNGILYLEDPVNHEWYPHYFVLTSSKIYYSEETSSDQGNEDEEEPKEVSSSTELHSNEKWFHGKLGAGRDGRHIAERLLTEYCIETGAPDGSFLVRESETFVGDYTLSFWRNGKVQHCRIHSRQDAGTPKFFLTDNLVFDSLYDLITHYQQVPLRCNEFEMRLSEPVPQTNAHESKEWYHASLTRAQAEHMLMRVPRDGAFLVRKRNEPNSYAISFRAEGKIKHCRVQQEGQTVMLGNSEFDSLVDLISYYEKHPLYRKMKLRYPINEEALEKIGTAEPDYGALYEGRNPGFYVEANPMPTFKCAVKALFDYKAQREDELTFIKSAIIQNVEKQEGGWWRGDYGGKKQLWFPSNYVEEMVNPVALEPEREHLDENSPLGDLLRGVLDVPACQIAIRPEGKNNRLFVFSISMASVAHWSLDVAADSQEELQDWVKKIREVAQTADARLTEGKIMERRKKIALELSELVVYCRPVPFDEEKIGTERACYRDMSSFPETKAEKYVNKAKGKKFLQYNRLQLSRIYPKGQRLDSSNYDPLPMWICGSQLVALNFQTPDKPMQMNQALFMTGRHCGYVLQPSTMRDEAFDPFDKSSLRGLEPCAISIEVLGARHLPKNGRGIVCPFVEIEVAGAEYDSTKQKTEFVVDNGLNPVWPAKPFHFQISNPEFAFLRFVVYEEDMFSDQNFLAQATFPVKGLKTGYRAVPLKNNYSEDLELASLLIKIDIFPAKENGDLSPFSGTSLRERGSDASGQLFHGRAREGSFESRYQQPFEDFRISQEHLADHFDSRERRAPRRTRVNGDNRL

[4] = target: T2, 1-phosphatidylinositol 4,5-bisphosphate phosphodiesterase beta-3 (Homo sapiens, UniProt Q01970); test: Fluorescence-based biochemical high throughput dose response assay to identify inhibitors of phospholipase C isozymes (PLC-B3).
T2 sequence (Q01970 whole entry): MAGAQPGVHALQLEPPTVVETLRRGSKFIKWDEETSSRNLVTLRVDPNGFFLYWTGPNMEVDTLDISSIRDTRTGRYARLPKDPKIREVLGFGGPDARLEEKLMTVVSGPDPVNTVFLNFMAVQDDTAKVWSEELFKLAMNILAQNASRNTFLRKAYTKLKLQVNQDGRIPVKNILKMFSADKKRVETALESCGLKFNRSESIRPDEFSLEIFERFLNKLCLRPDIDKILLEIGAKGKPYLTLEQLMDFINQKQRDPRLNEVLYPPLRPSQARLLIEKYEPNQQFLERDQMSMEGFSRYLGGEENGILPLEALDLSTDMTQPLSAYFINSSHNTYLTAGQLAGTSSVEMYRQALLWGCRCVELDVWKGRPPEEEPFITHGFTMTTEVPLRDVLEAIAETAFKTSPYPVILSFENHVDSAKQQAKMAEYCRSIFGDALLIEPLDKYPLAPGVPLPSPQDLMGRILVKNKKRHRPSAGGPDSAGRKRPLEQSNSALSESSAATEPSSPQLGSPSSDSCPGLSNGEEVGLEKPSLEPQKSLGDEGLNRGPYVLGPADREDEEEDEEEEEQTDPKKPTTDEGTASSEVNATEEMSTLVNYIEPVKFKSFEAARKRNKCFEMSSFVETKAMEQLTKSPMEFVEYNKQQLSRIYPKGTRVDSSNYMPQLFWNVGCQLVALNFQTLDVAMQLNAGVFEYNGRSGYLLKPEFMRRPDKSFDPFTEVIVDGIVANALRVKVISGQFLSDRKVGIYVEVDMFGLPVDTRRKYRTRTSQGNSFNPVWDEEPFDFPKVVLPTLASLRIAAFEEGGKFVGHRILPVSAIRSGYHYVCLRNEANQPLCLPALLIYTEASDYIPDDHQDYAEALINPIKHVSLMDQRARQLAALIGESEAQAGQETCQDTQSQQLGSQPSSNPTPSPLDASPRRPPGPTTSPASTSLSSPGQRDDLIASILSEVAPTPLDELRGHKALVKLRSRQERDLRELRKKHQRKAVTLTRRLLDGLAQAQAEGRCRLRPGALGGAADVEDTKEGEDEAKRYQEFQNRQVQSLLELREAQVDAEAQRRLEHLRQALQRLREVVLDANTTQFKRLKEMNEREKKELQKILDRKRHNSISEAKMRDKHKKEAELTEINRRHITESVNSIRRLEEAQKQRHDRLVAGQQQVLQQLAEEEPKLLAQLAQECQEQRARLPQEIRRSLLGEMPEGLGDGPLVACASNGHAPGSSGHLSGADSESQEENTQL

[5] = target: T3, Rac GTPase-activating protein 1 (Homo sapiens, UniProt Q9H0H5); test: blockers of MgcRacGAP-driven Rac1 GTP hydrolysis – biochemical, ADP Hunter fluorescence, primary and confirmatory, confirmation (AID 624330); format: functional
T3 sequence (Q9H0H5 whole entry): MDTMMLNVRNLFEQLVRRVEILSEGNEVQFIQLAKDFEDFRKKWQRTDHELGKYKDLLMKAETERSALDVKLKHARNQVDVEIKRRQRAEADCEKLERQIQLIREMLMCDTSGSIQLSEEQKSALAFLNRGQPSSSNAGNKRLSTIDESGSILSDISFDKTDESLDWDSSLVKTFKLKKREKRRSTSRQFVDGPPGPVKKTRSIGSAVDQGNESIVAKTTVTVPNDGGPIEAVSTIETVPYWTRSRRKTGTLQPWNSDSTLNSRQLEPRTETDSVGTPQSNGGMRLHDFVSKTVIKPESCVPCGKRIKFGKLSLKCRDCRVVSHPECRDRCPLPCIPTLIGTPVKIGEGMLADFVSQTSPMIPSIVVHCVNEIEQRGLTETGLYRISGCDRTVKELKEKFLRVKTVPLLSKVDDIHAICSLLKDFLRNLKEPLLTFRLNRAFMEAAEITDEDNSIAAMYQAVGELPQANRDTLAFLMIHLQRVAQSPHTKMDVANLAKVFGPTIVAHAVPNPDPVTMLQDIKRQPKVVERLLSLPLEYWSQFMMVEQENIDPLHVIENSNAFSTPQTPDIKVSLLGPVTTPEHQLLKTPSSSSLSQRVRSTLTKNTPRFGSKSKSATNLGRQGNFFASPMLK

[6] = HGIII-sPLA2 enzyme inhibition potency – biochemical, QFRET, IC50, dose response (AID 743457);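 also: green fluorescence rise as the enzyme cleaves BODIPY PC-A2 in liposomes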
[7] = activation of miR-122 Renilla sensor silencing – cell-based, Huh7 psiCHECK-miR122, Renilla luciferase, cherry-picked, dose response (AID 651956); format: functional;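 also: huh7 hepatoma cells stably carrying a psiCHECK-2 miR-122 sensor plasmid; renilla luciferase signal reporting endogenous miR-122 activity after 48 h compound exposure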
[8] = general mammalian cell viability loss – inhibitor set, cherry-pick, set 2, cytotoxicity control for miR-122 modulator project, dose response (AID 720697); format: functional, cell-based
[9] = general mammalian cell viability loss – activator set, cherry-pick, cytotoxicity control for miR-122 modulator project, dose response (AID 720690); format: functional, cell-based;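 also: HEK293T human cells scored for general mammalian cytotoxicity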
[10] = growth inhibition of yeast DHODH-expressing 3D7 parasites – SYBR Green, dry powder samples, dose response (AID 1159570); format: functional, cell-based;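 also: parasite growth measured after 72 hours of compound exposure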
[11] = toxicity to human HepG2 hepatoma cells – cell-based, plate reader, dry powder samples, cytotoxicity control, dose response (AID 1159569); format: functional;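 also: inhibitor potency with signal falling toward the positive control level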
[12] = P. falciparum Dd2 growth inhibitors, dose response, SYBR Green, cherry-picked samples (AID 1159567); format: functional, cell-based
[13] = Dd2 malaria parasite growth inhibition potency – SYBR Green, dry powder samples, dose response (AID 1159566); format: functional, cell-based;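 also: potency for growth inhibition with lower SYBR green DNA signal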
[14] = growth inhibition of PfATP4-mutant resistant parasites – NITD609-resistant line, SYBR Green, dry powder, dose response (AID 1159571); format: functional, cell-based;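 also: parasites synchronized at ring stage by sorbitol before testing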

In the case of COc1cc(C(=O)N2CCC(n3cnc4cc(F)ccc43)CC2)cc(OC)c1OC, the IC50 [1] is reported as > 109 µM (inactive) and the IC50 [2] is reported as > 83.3 µM (inactive).

For COc1ccccc1CN(C)C(C)C(=O)Nc1cccc(C(C)=O)c1 (stereo not drawn), the IC50 [1] was > 109 µM (inactive) and the IC50 [2] was > 83.3 µM (inactive).

In the case of O=C1CS(=O)(=O)c2ccccc2N1, the IC50 [3] is reported as 35.7 µM (inactive) and the IC50 [4] is reported as > 123 µM (inactive).

For Cc1ccc(Nc2n[nH]c(=S)s2)cc1, the IC50 [5] was 72.2 µM (active) and the IC50 [6] was > 122 µM (inactive).

For CN1C(=O)c2cc(NC(=O)c3ccc(C(F)(F)F)cc3)ccc2OC[C@@H]2O[C@H](CC(=O)NCc3ccc4c(c3)OCO4)CC[C@@H]21, the AC50 [7] was 6.22 µM (active), the AC50 [8] was 28 µM (active) and the AC50 [9] was 12.6 µM (active).

In the case of CNC[C@H]1Oc2cc(C#CC3CCCCC3)ccc2S(=O)(=O)N([C@H](C)CO)C[C@@H]1C, the AC50 [8] is reported as 0.433 µM (active) and the AC50 [9] is reported as 28.8 µM (active).

For COc1ccc(NC(=O)Nc2ccc3c(c2)[C@@H]2C[C@H](CC(=O)N[C@@H](C)c4ccccc4)O[C@H](CO)[C@@H]2O3)cc1, the AC50 [10] was 35.3 µM (active), the AC50 [11] was > 100 µM (inactive) and the AC50 [12] was 2.22 µM (active). For the same compound, the AC50 [13] was 1.62 µM (active) and the AC50 [14] was 2.16 µM (active).

With COc1ccc2c3c(n(C)c2c1)[C@@H](CO)N(Cc1ccc(Cl)cc1)CC31CCN(CC2CC2)CC1 the AC50 [10] was 2.64 µM (active), the AC50 [11] was 22 µM (active) and the AC50 [12] was 1.86 µM (active). The AC50 [13] was 1.67 µM (active) and the AC50 [14] was 1.7 µM (active).
